Results on two substances are retold here after PMC9570017, “Unorthodox PCNA Binding by Chromatin Assembly Factor 1” (International Journal of Molecular Sciences, 2022).

In one data set the test system is PCNA-Y250I. The data set can be described thus: Isothermal titration calorimetry (ITC), wild-type PIP titrated into PCNA-Y250I. Type of data set: binding, human. The following applies: 23 °C, 10 mM sodium phosphate, pH 7.0, 10 mM NaCl. On the procedure: Recombinant PCNA, PCNA-Y250I, and the PIP peptides (wild-type, R426D) were expressed and purified as described in the Supplementary Materials section—“Expression and purification of recombinant proteins”. The proteins were dialyzed against three 4-litre changes of ITC buffer containing 10 mM sodium phosphate, pH 7.0, and 10 mM NaCl at 4 °C overnight. The concentrations of PCNA and PIP peptides were determined by measuring tyrosine absorption at A280nm. ITC titrations of peptides into PCNA were performed at 23 °C in the ITC buffer (10 mM sodium phosphate, pH 7.0, 10 mM NaCl) using a MicroCal VP-ITC system. The concentrations of injected wild-type and mutant PIP in the syringe varied from 200 to 500 μM, whereas PCNA in the ITC sample cell varied depending on the experiment from 20 to 50 μM PCNA monomer. The protein and peptide samples were degassed before the ITC run. Data analysis was performed using the MicroCal Origin 7.0 software (OriginLab Corporation, Northampton, MA, USA) and all experiments fit the single binding site model. […]
S1. […] The C-terminal tyrosine was added to aid in peptide detection during the purification by measuring the absorbance at 280 nm. […] The next day, the saturated cells were diluted to 0.05 OD measured at A600 nm and the cells were grown at 37°C until the cells reach the mid-exponential phase of 0.6-0.8 at OD A600 nm. […]

In a further data set the target is T1, human PCNA (Homo sapiens, UniProt P12004).
T1 construct: His6 (C); made in house; host or cells: E. coli Codon Plus BL21(DE3) pLysS
T1 sequence (P12004 whole entry): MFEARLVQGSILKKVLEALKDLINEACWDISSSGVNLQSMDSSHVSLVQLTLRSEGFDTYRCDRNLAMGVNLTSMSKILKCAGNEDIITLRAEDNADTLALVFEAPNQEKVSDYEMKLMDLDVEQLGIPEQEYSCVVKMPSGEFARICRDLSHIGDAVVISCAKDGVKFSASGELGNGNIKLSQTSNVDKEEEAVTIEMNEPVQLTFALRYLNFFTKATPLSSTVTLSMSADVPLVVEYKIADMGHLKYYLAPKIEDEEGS
The data set can be described thus: Isothermal titration calorimetry (ITC), PIP peptide titrated into wild-type PCNA. The format is binding. An excerpt:
The wild-type and R426D peptides were expressed as GST fusions in E. coli, purified to homogeneity (see Materials and Methods) and used in isothermal titration calorimetry (ITC) assays with human PCNA purified from E. coli.
Recombinant PCNA, PCNA-Y250I, and the PIP peptides (wild-type, R426D) were expressed and purified as described in the Supplementary Materials section—“Expression and purification of recombinant proteins”. The proteins were dialyzed against three 4-litre changes of ITC buffer containing 10 mM sodium phosphate, pH 7.0, and 10 mM NaCl at 4 °C overnight. The concentrations of PCNA and PIP peptides were determined by measuring tyrosine absorption at A280nm. ITC titrations of peptides into PCNA were performed at 23 °C in the ITC buffer (10 mM sodium phosphate, pH 7.0, 10 mM NaCl) using a MicroCal VP-ITC system. The concentrations of injected wild-type and mutant PIP in the syringe varied from 200 to 500 μM, whereas PCNA in the ITC sample cell varied depending on the experiment from 20 to 50 μM PCNA monomer. The protein and peptide samples were degassed before the ITC run. Data analysis was performed using the MicroCal Origin 7.0 software (OriginLab Corporation, Northampton, MA, USA) and all experiments fit the single binding site model.
Supplementary Materials-Expression and purification of recombinant proteins
S1. Expression and purification of GST-PIP fusion proteins in Escherichia coli Wild-type p150 PIP and R426D peptides were constructed as GST-fusion proteins with a tyrosine at the C-terminus of the peptide. The C-terminal tyrosine was added to aid in peptide detection during the purification by measuring the absorbance at 280 nm. The DNA fragments encoding the GST fusion proteins were inserted into a pGEX-TEV vector, which is essentially a modified pGEX-2T vector where the thrombin cleavage site was replaced with a TEV cleavage site. The pGEX-TEV plasmid was digested with BamHI and EcoRI and ligated to DNA fragments encoding either the p150 PIP wild-type and R426D. The plasmids pGEX-TEV-PIP wild type and pGEX-TEV-PIP R426D were con-firmed by DNA sequencing and then expressed in Escherichia coli host strain TOPP2 (Strat-agene) with 100 µg/ml ampicillin to saturation at 37°C. The next day, the saturated cells were diluted to 0.05 OD measured at A600 nm and the cells were grown at 37°C until the cells reach the mid-exponential phase of 0.6-0.8 at OD A600 nm. The cells were then in-duced with 1 mM isopropyl-D-thiogalactopyranoside (IPTG) for 4 h. Eight litres of cell culture were grown each for the wild-type and R426D mutant. The cells were then har-vested by centrifugation in an Avanti J-26XP high-performance centrifuge from Beckman Coulter with a fixed angle rotor (JLA-8.1000) at 9000 x g for 30 min at 4°C. The pellet from 1 litre cells equivalent was lysed in 10 ml of lysis buffer containing 20 mM Tris pH 7.5, 1 M NaCl, 0.2 mM EDTA, 1 mM DTT, 50 µg/ml lysozyme, 1 mM AEBSF and one tablet of cOmplete™ Mini EDTA-free Protease Inhibitor Cocktail Tablets (Roche). The cell pellet was sonicated in the lysis buffer on ice, at power output level 4 with 10 seconds pulse on and 30 seconds off at 6 watts using a Misonix 3000 Ultrasonic cell disruptor and wider probe. The lysate was clarified by centrifugation for 30 min in an Avanti J-26XP with a fixed angle rotor 25.50 at 30966 x g at 4°C. The clarified supernatant was incubated on a nutator for 6 h at 4°C with 10 ml of glutathione-Sepharose (GSH) resin (Amersham) pre-washed and equilibrated with lysis buffer. After incubation the GSH resin was pelleted, the unbound supernatant was removed, and the resin was washed thrice with lysis buffer and twice with Tobacco Etch Virus (TEV) protease buffer (20 mM sodium phosphate pH 6.5, 50 mM NaCl, 2 mM DTT). The peptide was cleaved from the GSH resin by incubating in the presence of TEV protease overnight at 4°C. The next day, the supernatant was har-vested by centrifugation, and the GSH resin was washed twice with 20 mM sodium phos- […]
For orientation: In ITC the heat of successive injections is recorded.

A short description of data set [1]: Size exclusion chromatography of PCNA-Y250I. The format is physicochemical. The method, then:
S3. Expression and purification of wild-type and mutant PCNA proteins in Escherichia […]
PCNA wild-type and mutants were expressed and purified as previously reported. In short, wild-type or mutant plasmids in pET23-C-His6-PCNA vectors were trans-formed and expressed in Codon Plus BL21(DE3) pLysS E. coli (Stratagene) cells. Single colonies were inoculated and grown overnight in the Luria-Bertani medium containing 100 µg/mL ampicillin to saturation at 37°C. The next day the cells were diluted and grown to mid-exponential phase (0.6-0.8) at OD600 nm, and the expression was induced with 1 mM isopropyl-β-D-thiogalactopyranoside (IPTG) for 4 h. PCNA mutants were transformed and expressed in a similar way.
Cells were spun in an Avanti J-26XP high performance centrifuge from Beckman Coul-ter with a fixed angle rotor (JLA-8.1000) at 9000 x g for 30 min at 4°C and the pellets from 1 litre of cell culture were resuspended in 50 mL of lysis buffer containing 50 mM sodium phosphate pH 8.0, 150 mM NaCl, 10% glycerol, 20 mM imidazole, 0.02% nonidet P-40, 2 mM DTT. […]
The eluate was subsequently purified with a Superdex™ 200 gel filtration column (GE Healthcare) in gel filtration buffer 20 mM Tris pH 7.5, 150 mM NaCl, 1 mM DTT. The fractions corresponding to PCNA homotrimer were pooled, concentrated with an amicon concentrator with 3 kDa MWCO, quantified using absorbance at A280 nm, and stored at - […]
On the technique in general: Size exclusion chromatography separates by hydrodynamic size, large species first.

Where [2] appears, read: ITC at 296 K, 10 mM Na-phosphate (pH 7.0), 10 mM NaCl.

For “KAEITRFF [CAF-1 PIP wild type, wild-type p150 PIP expressed as GST fusion with C-terminal tyrosine, TEV-cleaved and purified, used for ITC]”, the “heat exchange / binding to PCNA-Y250I” value in the data set on PCNA-Y250I was “no detectable heat exchange observed by ITC”. Moreover, on human PCNA (setting [2]), the “N (stoichiometry of peptide binding per PCNA monomer)” value came to 0.83, the ΔG was -6.25 kcal/mol, the ΔH is -1.868 kcal/mol and the ΔS is recorded as 14.8 cal K^−1 mol^−1. On human PCNA (ITC at 296 K, 10 mM Na-phosphate (pH 7.0), 10 mM NaCl, one binding site per PCNA monomer, PIP 200 to 500 μM in syringe, PCNA 20 to 50 μM monomer), the Kd is 24 µM. In addition, the “stoichiometry (PIP per PCNA monomer)” value at human PCNA (ITC, 23 °C, 10 mM sodium phosphate, pH 7.0, 10 mM NaCl) was found to be 0.83.
In the case of “PCNA-Y250I: PCNA mutated at the tyrosine involved in the cation-π interaction with CAF-1 p150 Arg426”, the aggregation result in data set [1] is “no evidence of aggregation”.

By Kd is commonly meant the constant that tells how readily two partners part at equilibrium.
